In patent publication US8871510B2, “Methods for generating T lymphocytes from hematopoietic stem cells” (University of Utah Research Foundation, priority 2009, dated 2014):

Legend:
[1] = tested on: mouse lymphoid progenitor cells (c-kit+Sca-1+ lineage-neg CD90.1-neg); test: Ascorbate versus other anti-oxidants in OP9-DL1 lymphoid progenitor culture (30 days); assay type: cell-based; conditions: added after 14 days, culture through 30 days; anti-oxidants data not shown
Description: To establish the mechanism by which ascorbic acid promotes T cell development, we initially tested whether the anti-oxidant activity of ascorbic acid plays a key role. To test this, mouse lymphoid progenitor cells were isolated from adult bone marrow tissue by flow sorting, based on the phenotype c-kit+Sca-1+ lineage-neg CD90.1-neg, and 1000-2000 cells were plated per ml in the presence of the cytokines IL7 and Flt3L and the stromal cell line OP9-DL1. Cultures were harvested by forceful pipetting every 3-4 days and reseeded on a fresh monolayer of OP9-DL1 cells. After 14 days in culture, the cell number had expanded approximately 1000-fold (data not shown). At this point, the culture was split into two conditions, with one set of cultures supplemented with 1-ascorbic acid-2-phosphate (250 μg/ml), and the passages were continued through 30 days. […] Numbers indicate the percentage of cells with co-expression of CD4 and CD8 or CD3 and TCR.

[2] = tested on: mouse bone marrow-derived progenitor cells; test: Growth kinetics of bone marrow-derived progenitor cells in OP9-DL1 cultures (cytokines, ΔQ, NH4Cl); assay type: cell-based
Excerpt: The combination of Flt3L and IL-7 promotes 10^5-fold expansion over 26 days, while addition of stem cell factor (SCF) enhances this by 5-fold. […] The growth inhibition is mainly due to the failure of selection by TCR signaling, as shown by the failure of CD4^+CD8^+ double positive (DP) cells to survive and expand.
In this Example, several important variables that are important to the successful development of T lymphocytes from bone marrow-derived cells were identified. […] Our experiments defining optimal culture conditions tell us that in order to promote T cell development from bone marrow-derived progenitor cells, a two-stage culture system is required. In the first stage, bone marrow cells are expanded under the influence of lymphoid-specifying cytokines (IL-7 and Flt3 ligand) and notch signaling delivered by OP9-DL1 cells. The expansion of the resulting pro-T cells is robust, reaching a total expansion of 10^5-fold or more (FIG. 1).
All cultures were initiated by seeding 2×10^3 FACS-sorted bone marrow progenitor cells, selected based on the surface phenotype c-kit+Sca-1+Thy-1.1-neg lineage-neg, onto a feeder layer of OP9-DL1 stromal cells. All cultures contained 1 ng/ml IL-7 and 5 ng/ml Flt3L and otherwise identical additives (10% fetal calf serum, stabilized alanyl-glutamine, antibiotics, 2-ME, supplemental amino acids, and supplemental vitamins).

[3] = tested on: Lymphocyte progenitor cells (KLS, Thy1.1-); test: TLR-L and ascorbic acid effects on NK and T cell development from lymphoid progenitors co-cultured with OP9-DL1; assay type: cell-based, mouse; conditions: SCF contaminated with LPS through production in E. coli
Description: We therefore designed experiments to evaluate the differential effects of TLR-L and ascorbic acid on NK and T cell development from lymphoid progenitors co-cultured with OP9-DL1 stromal cells. Lymphocyte progenitor cells (KLS, Thy1.1-) were sorted from adult mouse bone marrow and 1000-2000 progenitor cells were seeded per well in a 24 well plate coated with OP9-DL1 stroma. Cultures were supplemented with IL-7 (5 ng/ml), Flt3 ligand (5 ng/ml), and SCF (100 ng/ml) plus one of 5 different TLR-L (TLR1/2, TLR3, TLR4, TLR5, and a crude LPS preparation that likely contains a number of TLR-L), with or without addition of a stabilized form of ascorbic acid, phosphoascorbate at a final concentration of 250 μg/ml. Cells were passaged, counted and re-seeded with fresh media and supplements twice a week over a 30-day period. Immunophenotype and viability were evaluated by flow cytometry. Markers for T cell development included CD44, CD25, CD3, CD4, CD8, T cell receptor […] and T cell receptor γδ chains. NK cells were evaluated for the presence of NKp46, NK1.1, and DX5.

For `N[C@@H](CS)C(=O)O` [1-cysteine], which “Differentiating effect (CD4/CD8 and CD3/TCR co-expression)” value [1] is on record?
Its value is “not reproduced”.

Which “Differentiating effect (CD4/CD8 and CD3/TCR co-expression)” value [1] does the source give for `CC(=O)N[C@@H](CS)C(=O)O` [N-acetyl-cysteine] here?
The value was “not reproduced”.

How did the “Expansion of the T lineage” value ([2]; day 15 of culture, FIG. 1B) turn out when `Cl.N` [NH4Cl, reference compound] was run?
Its value is “cease to expand”.

For `O=C(O)CCCCC1CCSS1` (stereo not drawn) [alpha-lipoic acid], which “Differentiating effect (CD4/CD8 and CD3/TCR co-expression)” value [1] is on record?
Its value is “not reproduced”.

For “SCF: stem cell factor; in b105 contaminated with LPS through its production in E. coli”, which “Enhancement of expansion on addition to Flt3L and IL-7” value ([2]; over 26 days, FIG. 1A) is on record?
Its value is 5 fold.

And the “Promotion of NK cell development in the OP9-DL1 culture system” value [3]?
The value was “particularly effective”.
